Experimental data reported in ChEMBL document CHEMBL3507680, “University of Dundee, Gates Library screen for HepG2 cell viability”.

Test: Human HepG2 cell viability assay in 384 well format
Format: toxicity, cell-based
Parameters: dose 125 nL, time 70.5 hour; cytotoxicity at 70.5 h: concentration not given beside the values
Details: HepG2 cells, read-out: Inhibition

Structure (SMILES) | cytotoxicity at 70.5 h
CN(Cc1ccccc1Cl)C(C(=O)O)c1ccc(F)c(CO)c1 (stereo not given) | -7.98%
OC1CCN(c2ccnc(NCCN3CCc4ccccc4C3)n2)C1 (stereo not given) | -13.9%
O=C(c1coc(COc2cccc3cnccc23)n1)N1CCCCCC1 | -1.27%
O=C(Nc1ccc(I)cc1C(=O)NCCN1CCOCC1)c1ccco1 | 8.88%
O=C(O)C(c1cccc2c1OCC2)N1CCC(N2CCSCC2)CC1 (stereo not given) | 0.963%
Cc1ccsc1CCNC(=O)C1(Oc2cccnc2C)CCNCC1 | -10.2%
CC(C)=CCC1(C(=O)O)CCCN(CCC(=O)NC2CC2)C1 (stereo not given) | -25.9%
C=C(C)COc1ccccc1CN1CCCC(C(=O)NCCCO)C1 (stereo not given) | -8.32%
CN1CC2(CCN(C(=O)c3ccc(=O)n(C)c3)CC2)CC1=O | 18.9%
CC(C)[C@@H]1CN(Cc2ccccc2C#N)C[C@H]1C(=O)O | 21%
COCCNC(=O)c1cnc(C)nc1C | 34.7%
COc1ccc(C(=O)N2CCC(C3CCN(c4ncccn4)CC3)C2)o1 (stereo not given) | 2.75%
CC(=O)NCc1nc(Cc2cccc(Cl)c2)nn1C1CCN(C)CC1 | 6.7%
OCc1csc(N2CCCN(Cc3ccc(F)cc3)CC2)n1 | 2.55%
Cc1ccc(F)cc1-n1c(CN(C)S(C)(=O)=O)n[nH]c1=O | -8.73%
CCCc1cc(N2CCC(NCC3(O)CCCCC3)CC2)nc(C)n1 | -8.99%
Cc1nc[nH]c1-c1nnc(SCC(=O)O)n1-c1ccccc1C(F)(F)F | -6.65%
Cn1nc(CN2CCC(c3ccncc3)CC2)c2c(Cl)cccc21 | -0.977%
CC(C)c1cc(NC(CCO)c2ccccc2)n2nccc2n1 (stereo not given) | 3.68%
Cc1nc(CNC(=O)c2ccc3c(c2)nc(N2CCOCC2)n3C)cs1 | -5.03%

Structure (SMILES) | cytotoxicity at 70.5 h
COc1cc(NC2CCN(C3CCS(=O)(=O)CC3)CC2)ncn1 | -20.6%
CN(CC1COc2ccccc2O1)C(=O)c1ccc(-c2cn[nH]c2)nc1 (stereo not given) | -2.63%
CC(CCc1ccc(O)cc1)NC1CCN(C(=O)C(C)C)CC1 (stereo not given) | -11.4%
Cc1nn(CC(=O)N2CCC3(CN(C)C(=O)O3)C2)c(=O)c2ccccc12 (stereo not given) | -15%
COc1ccc([C@@H]2CN(C(=O)CCCc3cn[nH]c3)C[C@H]2N(C)C)cc1 | 9.02%
CC(C)N1CCOC(CC(=O)N2CC(c3ccncc3)C2)C1 (stereo not given) | -2.68%
O[C@@]1(CNCC2(Cn3ccnc3)CC2)CCCN2CCCC[C@@H]21 | -13.1%
C=C(C)COc1ccccc1C(=O)NCCc1nncn1C | 25.1%
CCCc1nnc(N(C)CC2CCN(CC(C)C)C2)o1 (stereo not given) | -1.56%
O=C(O)c1ccnc(-c2ccnc(N3CCCCCC3)n2)c1 | 17.6%
CCCC1(CO)CCCN(c2ncnc3c2c(C)nn3C)C1 (stereo not given) | -3.54%
CC(O)C(=O)N1CCN(c2ccccc2Cl)C(=O)C1 (stereo not given) | 17%
Fc1ccc(C2(CNCC(F)F)CCOC2)cc1 (stereo not given) | -2.85%
NC(=O)c1ccc(C2CCCN2C(=O)CCc2nc3ccccc3s2)s1 (stereo not given) | -1.87%
O=C(c1cscn1)N1CCC(Cn2cc(-c3ccsc3)nn2)CC1 | -8.02%
Cc1[nH]c2c(F)cccc2c1CC(=O)N1CCCC(N)CC1 (stereo not given) | 14.1%
Cc1ccc(CNC(=O)c2ccc(S(=O)(=O)N3C[C@@H]4C[C@H]3CN4)cc2)o1 | -2.7%
O=C1CC2(CCN(CCCF)CC2)CN1Cc1cc(F)cc(F)c1 | 8.23%
c1csc(CCC2CCCCN2Cc2noc(C3CC3)n2)c1 (stereo not given) | -13%
CC(C)c1nnc2sc(CC3CCS(=O)(=O)C3)nn12 (stereo not given) | -7.56%
